These compounds were tested against T1, BRD4 bromodomains (Homo sapiens, UniProt O60885) (assay: BROMOscan bromodomain competition binding assay (DiscoveRx)). Settings: Kd from 11 compound concentrations ranging from 0 to 10 μM, read-out: BROMOscan Relative Activity.
T1 construct: fused on or other part: T7 phage capsid protein (phage-display fusion; the phage DNA is read out by qPCR)
Procedure, shortened: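 Compounds in 0.1% DMSO/0.9% MEG competed with a solid-phase acetylated peptide for T7 phage-fused BRD4 bromodomains, with the retained bromodomain measured by qPCR.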
In the case of `Cc1noc(C)c1-c1ccc2nc(N3CCc4cnn(C)c4C3)nc(N3CCOC[C@@H]3c3ccccc3)c2c1` [Example 318, (S)-4-(6-(3,5-dimethylisoxazol-4-yl)-2-(1-methyl-1,4,5,7-tetrahydro-6H-pyrazolo[3,4-c]pyridin-6-yl)quinazolin-4-yl)-3-phenylmorpholine], the Kd is reported as under 500 nM. In the case of `Cc1noc(C)c1-c1ccc2nc(N3CCN(CCN(C)C)CC3)nc(NC(C)c3cccc(Cl)c3)c2c1` (stereo not shown) [Example 90, N-(1-(3-chlorophenyl)ethyl)-2-(4-(2-(dimethylamino)ethyl)piperazin-1-yl)-6-(3,5-dimethylisoxazol-4-yl)quinazolin-4-amine], the Kd is reported as under 500 nM. `Cc1ccc(CNC(=O)c2nc(NCc3cccc(Cl)c3)c3cc(-c4c(C)noc4C)ccc3n2)cn1` [Example 197, 4-((3-chlorobenzyl)amino)-6-(3,5-dimethylisoxazol-4-yl)-N-((6-methylpyridin-3-yl)methyl)quinazoline-2-carboxamide] was tested, and the Kd was under 500 nM. With `Cc1noc(C)c1-c1ccc2nc(-c3cnn(C4CCNCC4)c3)nc(N3CCOC[C@@H]3c3ccccc3)c2c1` [Example 319, (S)-4-(6-(3,5-dimethylisoxazol-4-yl)-2-(1-(piperidin-4-yl)-1H-pyrazol-4-yl)quinazolin-4-yl)-3-phenylmorpholine] the Kd was under 500 nM. `Cc1nn(C)cc1CNC(=O)c1cc(NCc2cccc(Cl)c2)c2cc(-c3c(C)noc3C)ccc2n1` [Example 230, 4-((3-chlorobenzyl)amino)-N-((1,3-dimethyl-1H-pyrazol-4-yl)methyl)-6-(3,5-dimethylisoxazol-4-yl)quinoline-2-carboxamide] gave a Kd of under 500 nM. `Cc1csc(CNc2nc(N3CCN(CCN(C)C)CC3)nc3ccc(-c4c(C)noc4C)cc23)c1` [Example 87, 2-(4-(2-(dimethylamino)ethyl)piperazin-1-yl)-6-(3,5-dimethylisoxazol-4-yl)-N-((4-methylthiophen-2-yl)methyl)quinazolin-4-amine] was tested, and the Kd was under 500 nM. In the case of `Cc1nn(C)cc1CNC(=O)c1nc(N2CCOC[C@@H]2c2ccccc2)c2cc(-c3c(C)noc3C)ccc2n1` [Example 281, (S)—N-((1,3-dimethyl-1H-pyrazol-4-yl)methyl)-6-(3,5-dimethylisoxazol-4-yl)-4-(3-phenylmorpholino)quinazoline-2-carboxamide], the Kd is reported as under 500 nM. `Cc1noc(C)c1-c1ccc2nc(C(=O)NCc3cncn3C)nc(NCc3cncc(Cl)c3)c2c1` [Example 232, 4-(((5-chloropyridin-3-yl)methyl)amino)-6-(3,5-dimethylisoxazol-4-yl)-N-((1-methyl-1H-imidazol-5-yl)methyl)quinazoline-2-carboxamide] was tested, and the Kd was under 500 nM. With `Cc1noc(C)c1-c1ccc2nc(-c3cnn(CC(C)(C)O)c3)nc(NCc3cncc(Cl)c3)c2c1` [Example 139, 1-(4-(4-(((5-chloropyridin-3-yl)methyl)amino)-6-(3,5-dimethylisoxazol-4-yl)quinazolin-2-yl)-1H-pyrazol-1-yl)-2-methylpropan-2-ol] the Kd was under 500 nM. In the case of `CN1CCC(NC(=O)c2cc(NCc3cccc(Cl)c3)c3cc(-c4ccc(=O)n(C)c4)ccc3n2)CC1` [Example 227, 4-((3-chlorobenzyl)amino)-6-(1-methyl-6-oxo-1,6-dihydropyridin-3-yl)-N-(1-methylpiperidin-4-yl)quinoline-2-carboxamide], the Kd is reported as under 500 nM. `CNC(=O)Cn1cc(-c2nc(NCc3cncc(Cl)c3)c3cc(-c4c(C)noc4C)ccc3n2)cn1` [Example 141, 2-(4-(4-(((5-chloropyridin-3-yl)methyl)amino)-6-(3,5-dimethylisoxazol-4-yl)quinazolin-2-yl)-1H-pyrazol-1-yl)-N-methylacetamide] gave a Kd of under 500 nM. Compound `CN(C)CCCN1CCN(c2nc(NCc3cncc(Cl)c3)c3cc(-c4ccc(=O)n(C)c4)ccc3n2)CC1` [Example 125, 5-(4-(((5-chloropyridin-3-yl)methyl)amino)-2-(4-(3-(dimethylamino)propyl)piperazin-1-yl)quinazolin-6-yl)-1-methylpyridin-2(1H)-one] has a Kd of under 500 nM. `Cc1noc(C)c1-c1ccc2ncnc(NCc3cccc(Cl)c3)c2c1` [Example 2, N-(3-chlorobenzyl)-6-(3,5-dimethylisoxazol-4-yl)quinazolin-4-amine] showed a Kd of under 500 nM. Compound `Cc1noc(C)c1-c1ccc2nc(C(=O)N[C@H]3C[C@H](O)C3)nc(NCc3cccc(Cl)c3)c2c1` [Example 253, 4-((3-chlorobenzyl)amino)-6-(3,5-dimethylisoxazol-4-yl)-N-((trans)-3-hydroxycyclobutyl)quinazoline-2-carboxamide] has a Kd of under 500 nM. In the case of `Cc1noc(C)c1-c1ccc2nc(C(=O)N3CCN(CCN(C)C)CC3)nc(NCc3cccc(Cl)c3)c2c1` [Example 165, (4-((3-chlorobenzyl)amino)-6-(3,5-dimethylisoxazol-4-yl)quinazolin-2-yl)(4-(2-(dimethylamino)ethyl)piperazin-1-yl)methanone], the Kd is reported as 500 to 5000 nM. With `Cc1noc(C)c1-c1ccc2nc(C(=O)N3CCc4[nH]ncc4C3)nc(NCc3cccc(Cl)c3)c2c1` [Example 287, (4-((3-chlorobenzyl)amino)-6-(3,5-dimethylisoxazol-4-yl)quinazolin-2-yl)(1,4,6,7-tetrahydro-5H-pyrazolo[4,3-c]pyridin-5-yl)methanone] the Kd was under 500 nM. For `Cc1ccc(CNc2nc(N3CCN(CCN(C)C)CC3)nc3ccc(-c4c(C)noc4C)cc23)s1` [Example 88, 2-(4-(2-(dimethylamino)ethyl)piperazin-1-yl)-6-(3,5-dimethylisoxazol-4-yl)-N-((5-methylthiophen-2-yl)methyl)quinazolin-4-amine], the Kd was under 500 nM. `Cc1noc(C)c1-c1ccc2nc(C(=O)NCc3cncn3C)nc(N3CCOC[C@@H]3c3ccccc3)c2c1` [Example 279, (S)-6-(3,5-dimethylisoxazol-4-yl)-N-((1-methyl-1H-imidazol-5-yl)methyl)-4-(3-phenylmorpholino)quinazoline-2-carboxamide] showed a Kd of under 500 nM. Work on `Cc1noc(C)c1-c1ccc2nc(C(=O)NC3CCS(=O)(=O)CC3)cc(NCc3cccc(Cl)c3)c2c1` [Example 235, 4-((3-chlorobenzyl)amino)-6-(3,5-dimethylisoxazol-4-yl)-N-(1,1-dioxidotetrahydro-2H-thiopyran-4-yl)quinoline-2-carboxamide] yielded a Kd of under 500 nM. `COc1ccccc1CNc1nc(N2CCN(CCN(C)C)CC2)nc2ccc(-c3c(C)noc3C)cc12` [Example 72, 2-(4-(2-(dimethylamino)ethyl)piperazin-1-yl)-6-(3,5-dimethylisoxazol-4-yl)-N-(2-methoxybenzyl)quinazolin-4-amine] showed a Kd of under 500 nM. Work on `Cc1cc(CNC(=O)c2nc(NCc3cccc(Cl)c3)c3cc(-c4c(C)noc4C)ccc3n2)ccn1` [Example 249, 4-((3-chlorobenzyl)amino)-6-(3,5-dimethylisoxazol-4-yl)-N-((2-methylpyridin-4-yl)methyl)quinazoline-2-carboxamide] yielded a Kd of under 500 nM. Compound `Cc1noc(C)c1-c1ccc2nc(C(=O)NC3CCC(F)(F)CC3)nc(NCc3cccc(Cl)c3)c2c1` [Example 252, 4-((3-chlorobenzyl)amino)-N-(4,4-difluorocyclohexyl)-6-(3,5-dimethylisoxazol-4-yl)quinazoline-2-carboxamide] has a Kd of 500 to 5000 nM. For `Cc1noc(C)c1-c1ccc2nc(C(=O)NCc3ccc(Cl)cc3)nc(NCc3cccc(Cl)c3)c2c1` [Example 168, N-(4-chlorobenzyl)-4-((3-chlorobenzyl)amino)-6-(3,5-dimethylisoxazol-4-yl)quinazoline-2-carboxamide], the Kd was over 5000 nM. With `Cc1noc(C)c1-c1ccc2nc(NCCCO)nc(NCc3cccc(Cl)c3)c2c1` [Example 13, 3-((4-((3-chlorobenzyl)amino)-6-(3,5-dimethylisoxazol-4-yl)quinazolin-2-yl)amino)propan-1-ol] the Kd was under 500 nM. `Cc1noc(C)c1-c1ccc2nc(N3CCS(=O)(=O)CC3)nc(NCc3cncc(Cl)c3)c2c1` [Example 241, 4-(4-(((5-chloropyridin-3-yl)methyl)amino)-6-(3,5-dimethylisoxazol-4-yl)quinazolin-2-yl)thiomorpholine 1,1-dioxide] was tested, and the Kd was under 500 nM. `Cc1noc(C)c1-c1ccc2nc(-c3cnn(CC(N)=O)c3)nc(NCc3cncc(Cl)c3)c2c1` [Example 142, 2-(4-(4-(((5-chloropyridin-3-yl)methyl)amino)-6-(3,5-dimethylisoxazol-4-yl)quinazolin-2-yl)-1H-pyrazol-1-yl)acetamide] was tested, and the Kd was under 500 nM. For `Cc1noc(C)c1-c1ccc2nc(C(=O)NCc3ccncc3)nc(NCc3cncc(Cl)c3)c2c1` [Example 207, 4-(((5-chloropyridin-3-yl)methyl)amino)-6-(3,5-dimethylisoxazol-4-yl)-N-(pyridin-4-ylmethyl)quinazoline-2-carboxamide], the Kd was under 500 nM. In the case of `Cc1noc(C)c1-c1ccc2nc(-c3cnn(C(C)(C)CO)c3)nc(NCc3cncc(Cl)c3)c2c1` [Example 138, 2-(4-(4-(((5-chloropyridin-3-yl)methyl)amino)-6-(3,5-dimethylisoxazol-4-yl)quinazolin-2-yl)-1H-pyrazol-1-yl)-2-methylpropan-1-ol], the Kd is reported as under 500 nM. `CN(C)C(=O)CN1CCN(c2nc(NCc3cccc(Cl)c3)c3cc(-c4ccc(=O)n(C)c4)ccc3n2)CC1` [Example 110, 2-(4-(4-((3-chlorobenzyl)amino)-6-(1-methyl-6-oxo-1,6-dihydropyridin-3-yl)quinazolin-2-yl)piperazin-1-yl)-N,N-dimethylacetamide] was tested, and the Kd was under 500 nM. `Cc1noc(C)c1-c1ccc2nc(-c3cnn(CCO)c3)nc(NC3(c4cccc(Cl)c4)CC3)c2c1` [Example 164, 2-(4-(4-((1-(3-chlorophenyl)cyclopropyl)amino)-6-(3,5-dimethylisoxazol-4-yl)quinazolin-2-yl)-1H-pyrazol-1-yl)ethanol] showed a Kd of under 500 nM. For `Cc1noc(C)c1-c1ccc2nc(N3CCC(CN(C)C)CC3)nc(NCc3cccc(Cl)c3)c2c1` [Example 41, N-(3-chlorobenzyl)-2-(4-((dimethylamino)methyl)piperidin-1-yl)-6-(3,5-dimethylisoxazol-4-yl)quinazolin-4-amine], the Kd was under 500 nM.
